≈ marks a conversion by molar mass, not a printed value. Read-outs that look alike come from different tables or passages of the source.
Columns and labels:
[1] = Thermodynamic solubility at pH 6.8; assay type: physicochemical
[2] = tested on: KINOMEscan panel (DiscoverX) of >400 wild-type human kinases; assay type: binding; conditions: inhibitor concentration = 1 μM
[3] = tested on: P-gp (human MDR1); experiment: MDCK-MDR1 permeability and P-gp efflux assay; assay type: in vitro ADME, canine; conditions: dog, MDCK-MDR1
[4] = tested on: Madin–Darby canine kidney cells transfected with the human MDR1 gene (MDCK-MDR1); experiment: MDCK-MDR1 permeability and P-gp efflux assay; assay type: in vitro ADME; conditions: MDCK-MDR1, conclusion in words
[5] = In vivo pharmacokinetic study, i.v. in Sprague–Dawley rats; conditions: 1 mg/kg i.v.
[6] = target: T1, DYRK1A (Homo sapiens, UniProt Q13627); assay type: binding; conditions: for LE: LE = 1.4(pIC50)/nonhydrogen atoms; for LLE: LLE = pIC50 – clog P
[7] = tested on: in-house panel of 48 representative kinases; assay type: binding
[8] = target: T1, DYRK1A; assay type: binding; conditions: SPR, dissociation rate (off-rate)
[9] = relative to reference compound/matched-molecular pair 11

SMILES	S score (35) [2]	fold reduction in DYRK1A binding affinity [6, 9]	other results
Cc1cccc(N(C)c2nccc(-c3cnn4ncccc34)n2)c1 [Compound 8b]	–	–	solubility [1]: 10 µg/mL (≈ 31.6 µM)
CN(C)c1nccc(-c2cnn3ncccc23)n1 [Compound 11, N,N-Dimethyl-4-pyrazolo[1,5-b]pyridazin-3-yl-pyrimidin-2-amine]	0.027	–	Papp A→B [3]: 71.4 ± 0.65 ×10⁻⁶ cm/s; Papp B→A [3]: 58.7 ± 1.45 ×10⁻⁶ cm/s; P-gp substrate [4]: not a P-gp substrate; adverse effects [5]: no adverse effects reported
CN(c1nccc(-c2cnn3ncccc23)n1)C1CC1 [Compound 12, N-Cyclopropyl-N-methyl-4-pyrazolo[1,5-b]pyridazin-3-yl-pyrimidin-2-amine]	0.013	–	–
CC(C)N(c1nccc(-c2cnn3ncccc23)n1)C1CC1 [Compound 13]	–	–	fold reduction in DYRK1A binding affinity ([6]; matched-molecular pairs 12 and 13): 10 fold
c1cnn2ncc(-c3ccnc(N4CCC45COC5)n3)c2c1 [Compound 22, 1-(4-Pyrazolo[1,5-b]pyridazin-3-yl-pyrimidin-2-yl)-6-oxa-1-azaspiro[3.3]heptane]	0.042	–	–
CC1CCCN1c1nccc(-c2cnn3ncccc23)n1 (stereo not shown) [Compound 24, 3-[2-(2-Methylpyrrolidin-1-yl)pyrimidin-4-yl]pyrazolo[1,5-b]pyridazine]	0.004	–	–
C[C@H]1CCN(c2nccc(-c3cnn4ncccc34)n2)C1 [Compound 28, 3-[2-[(3S)-3-Methylpyrrolidin-1-yl]pyrimidin-4-yl]pyrazolo[1,5-b]pyridazine]	0.050	–	–
C[C@@H]1CCN(c2nccc(-c3cnn4ncccc34)n2)C1 [Compound 29, 3-[2-[(3R)-3-Methylpyrrolidin-1-yl]pyrimidin-4-yl]pyrazolo[1,5-b]pyridazine]	0.035	–	–
F[C@@H]1CCN(c2nccc(-c3cnn4ncccc34)n2)C1 [Compound 31, 3-[2-[(3R)-3-Fluoropyrrolidin-1-yl]pyrimidin-4-yl]pyrazolo[1,5-b]pyridazine]	0.011	–	–
N[C@H]1CCN(c2nccc(-c3cnn4ncccc34)n2)C1 [Compound 33, (3S)-1-(4-pyrazolo[1,5-b]pyridazin-3-yl-pyrimidin-2-yl)pyrrolidin-3-amine]	0.027	–	–
Cc1nn2ncccc2c1-c1ccnc(N(C)C)n1 [Compound 60]	–	–	DYRK1A binding affinity (in words) ([6]; TR-FRET assay): no binding affinity
Cc1ccc2c(-c3ccnc(N(C)C)n3)cnn2n1 [Compound 62]	–	> 10 fold	–
Cc1cnn2ncc(-c3ccnc(N(C)C)n3)c2c1 [Compound 63, N,N-Dimethyl-4-(5-methylpyrazolo[1,5-b]pyridazin-3-yl)pyrimidin-2-amine]	0.027	–	–
Cc1ccnn2ncc(-c3ccnc(N(C)C)n3)c12 [Compound 64]	–	~10 fold	–
COc1ccc2c(-c3ccnc(N(C)C)n3)cnn2n1 [Compound 65]	–	> 10 fold	–
COc1ccnn2ncc(-c3ccnc(N(C)C)n3)c12 [Compound 66, 4-(4-Methoxypyrazolo[1,5-b]pyridazin-3-yl)-N,N-dimethyl-pyrimidin-2-amine]	–	~2 fold	–
CN(C)c1nccc(-c2c[nH]c3ncccc23)n1 [Compound 78]	–	–	selectivity by thermal stabilization (in words) [7]: cross-reacted with several additional kinases including the NAK kinases AAK1 and BMP2K
CN(C)c1ncc(F)c(-c2cnn3ncccc23)n1 [Compound 95, 5-Fluoro-N,N-dimethyl-4-pyrazolo[1,5-b]pyridazin-3-yl-pyrimidin-2-amine]	–	–	kd [8]: 0.06 s^–1
CN(C)c1cccc(-c2cnn3ncccc23)n1 [Compound 111]	–	approximately 10 fold	LE [6]: 0.47; LLE [6]: 3.79
CN(C)c1cc(-c2cnn3ncccc23)ccn1 [Compound 113]	–	10 fold	LE [6]: 0.48; LLE [6]: 4.31

From paper PMC8482766 (Journal of Medicinal Chemistry, 2021)
